Experimental data as given in US20230365570A1, “COMPOUNDS WITH GLUCOCORTICOID SPARING EFFECTS AND USES THEREOF” (The Regents of the University of California, priority 2020, published 2023).

Assays:
Format in all cases: cell-based, human
THP-1 cells [1] = assay: IL-1ß stimulated TNF release by THP-1 cells; settings: THP-1 cells, IL-1ß 2 ng/ml, overnight (FIG. 3D)
Procedure: (§1) THP-1 cells (10^5 cells/200 μL/well) and RA FLS (104/200 μL/well) were plated in 96 well plates and pre-treated with compound or vehicle for 1 h and then stimulated with either LPS (10 ng/ml), 1L-1ß (2 ng/ml) or TNF (2 ng/ml for THP-1 and 1 ng/ml for RA FLS). After 18 h of incubation, supernatants were collected and the levels of cytokines and chemokines in the culture supernatants were measured by ELISA according to the manufacturer's protocols (R&D systems, Minneapolis, MN).
(§2) The lead compounds belonging to chemotypes 1, 3, and 5 were tested for potency in suppressing chemokine and cytokine production by THP-1 cells in the presence of different inflammatory stimuli. The production of CXCL8 induced by either LPS (10 ng/ml), IL-1ß (2 ng/ml), or TNF (2 ng/ml) and TNF induced by IL-1ß (2 ng/ml) was assessed using serially diluted compounds. The compounds except 1-2 reduced the level of CXCL8 production stimulated by LPS in a dose dependent manner (FIG. 3A). However, the compounds from chemotype 5 enhanced CXCL8 release by THP-1 cells when stimulated with IL-111, or TNF (FIGS. 3B, C). […] The 1Cs0 for 1-1, 1-2 and 3-1 for IL-1ß stimulated CXCL8 release included 400, 1770, and 2020 nM, respectively, (FIG. 3C).

RA FLS [2] = assay: Cell viability of RA FLS by WST-8 assay; settings: WST-8 assay (FIG. 6F)
Procedure: Two types of tetrazolium were used for viability assays. For THP-1 cells, the cells were dispensed in 96-well plates (10^5 cells/200 μL/ well) and treated with 5 Oil of each compound. After 18 h of incubation, 0.5 mg/ml 3[4,5-dimethylthiazol-2-yl]-2,5-dipheyl tetrazolium bromide (MTT; Thermo Fisher Scientific) in assay media was added to each well at a final concentration of (0.5 mg/ml) and further incubated for 4-6 h. The absorbances at 570 and 650 nm were measured by a Tecan Infinite M200 plate reader, For RA FLS, the cells were dispersed into 96-well flat bottom plates (104/200 μL/well) and incubated overnight. The next day, RA FLS were treated with 5 μM of each compound for 18 h of incubation. Ten μl of WST-8 [2-(2-methoxy-4-nitrophenyl)-3-(4-nitrophenyl)-5-(2,4-disulfophewnyl)-2H-tetrazolium, monosodium salt] solution was added to each well and the cells were further incubated for 2-4 h. The absorbance was measured at 450 nm with Bio-Rad iMark plate reader (Bio-Rad Laboratories Inc., Hercules, CA, Unites States).

THP-1 cells [3] = assay: Combination and synergy of compounds with DEX, CXCL8 release by TNF stimulated THP-1 cells
Procedure: Drug synergy analysis was performed using lsobologram plots which were calculated according to reported procedures to compute IC50 and determine synergism. IC50 is computed from the median effect equation. Synergism analysis is carried out using the Combination index (Cl)-isobol method. Data analysis was performed using the CompuSyn software available on combisyn.com, Detailed methodology was used as described in a prior report. Briefly, the median-effect equation is computed to obtain the linear regression for the effect of inhibitors DEX and 1−1 as Fa/Fu=(D/D50)^m, where D is the dose; Fa and Fu is the fraction of the inhibition and uninhibited response by the dose D (Fa+Fu=1); D50 is the dose producing the median effect (i.e, IC50). The constant m determines the shape of the dose-effect curve. The median-effect equation in logarithmic form is log (Fa/Fu) =m log(D)−m log (D50) which essentially represents a linear relationship between log(Fa/Fu) and log(D). […] This is followed by Cl-isobol method to quantitatively assess the synergism between these inhibitor drugs. A combination index (Cl) is estimated from dose-effect data of single and combined drug treatments. A value of C; less than one indicates synergism; Cl=1 indicates additive effect; and Cl>1 indicates antagonism. Drug interaction (synergism or antagonism) is more pronounced the further a CI value is from 1. […] The doses Dx1 and Dx2 were estimated from the median effect equation above for single drug treatments. From the median effect equation, the estimated dose (i.e., D) necessary to produce the inhibition (i.e., Fa, Fu) obtained by the combination was calculated. The results are presented as a normalized isobolograrn. A point in the isobologram represents the effect of a drug(s) treatment.
To assess whether the remaining candidate compounds would provide additional benefit to a low dose of glucocorticoid, THP-1 cells were stimulated with TNF and treated them with serially diluted compounds and 100 nM DEX (FIGS. 4A-C). […] Next whether there was an additive or synergistic effect with these three compounds and DEX was formally addressed. […] The four CXCL8 levels below the maximum plateau were used to calculate an isobologram (FIG. 5D).

RA FLS [4] = assay: Chemokine and cytokine production by TNF stimulated RA FLS
Text: Rheumatoid arthritis fibroblast-like synoviocytes (RA FLS) were isolated from synovial tissues derived from patients with RA when they underwent joint replacement surgery or synovectomy. Patients were age ≥18 years with active RA based on the ACR 1987 Revised Criteria and consent forms were completed by the patients before surgery. The study protocol was approved by the institutional review board at TokyoMedical andDental University, Tokyo, Japan and are in accordance with the principles of the Declaration of Helsinki. RA FLS were cultured in DMEM supplemented with 10% FBS, 100 U/mL penicillin, and 100 μg/mL streptomycin in a humidified 5% CO2 incubator. All experiments used proliferating RA FLS.
as §1
In the pathogenesis of rheumatoid arthritis, fibroblast-like synoviocytes (RA FLS) are a primary source of inflammatory cytokines and chemokines in inflamed joints. The immunomodulatory effects and cytotoxicity of compound 1-1 on RA FLS was analyzed. […] To assess the synergistic effect of compound 1-1 with DEX in RA FLS, IL-6 and CXCL8 suppression was analyzed by co-titrating DEX and compound 1-1 in cultures with TNF stimulated RA FLS (FIG. 7A, B).

THP-1 cells [5] = assay: TNF stimulated CXCL8 release by THP-1 cells; settings: TNF 2 ng/ml, overnight (FIG. 3B)
Procedure: as §1, §2

With Cc1ccc(-n2ncc3c(NC4CCCCC4)ncnc32)c(C)c1 [Compound 1-1] the IC50 (THP-1 cells [1]) was 190 nM, the “Cytotoxicity in RA FLS” value (RA FLS [2]) was “low cytotoxicity” and the “Effect of addition of DEX on CXCL8 production” value (THP-1 cells [3]; TNF 2 ng/ml stimulated THP-1 cells, serially diluted compound plus 100 nM DEX (FIGS. 4A-C)) was “significantly reduced the CXCL8 production at all of the effective doses”. The “Synergy with DEX, isobologram of potency ratios for CXCL8” value (THP-1 cells [3]; TNF stimulated THP-1 cells, compound and DEX titrated at same molarity (FIG. 5D)) was “demonstrating synergy”, the IC50 (THP-1 cells [3]; TNF stimulated THP-1 cells, single agents (FIG. 5A), read-out: IC50 for TNF stimulated CXCL8 release (titration with DEX)) was 968 nM and the “CCL2 production induced by TNF” value (RA FLS [4]; TNF 1 ng/ml overnight) was “dose-dependently suppressed”. The “CXCL1 production induced by TNF” value (RA FLS [4]; TNF 1 ng/ml overnight) was “dose-dependently suppressed”, the “CXCL8 production induced by TNF” value (RA FLS [4]; TNF 1 ng/ml overnight) was “dose-dependently suppressed” and the “IL-6 production induced by TNF” value (RA FLS [4]; TNF 1 ng/ml overnight) was “dose-dependently suppressed”. For the same molecule, the “MMP-3 production induced by TNF” value (RA FLS [4]; TNF 1 ng/ml overnight) was “not”, the “IC50 in RA FLS” value (RA FLS [4]; comparable to that in THP-1) was “micromolar level” and the IC50 (THP-1 cells [5]) was 900 nM.
